The record followed here is the supplement of paper PMC7046801.

Structures can show the parent of a compound that is named as a salt. A value given as a limit tells only on which side of the number the result lay.

Conditions in all cases: 24 h
Test [1] deals with NHEK immortalized keratinocytes.
Test [2] concerns NKTC primary neonatal keratinocytes.
For test [3], the system named is NHEK immortalized keratinocytes. As to the kind of experiment: IC50 cell viability (CellTiter-Glo). For orientation: In ATP-based viability assays light output follows the ATP content of the culture.
The test system of test [4] is NKTC primary neonatal keratinocytes. As to the kind of experiment: IC50 cell viability (CellTiter-Glo).

Consider `O=c1[nH]sc2ccccc12` [1,2-Benzisothiazolin-3-one], for which the “IC50 cell viability (WST-8)” value in test [1] amounted to 1.68 µM; in test [2], 21.4 µM. The IC50 cell viability in test [3] came to 1.26 µM; in test [4] it was 16 µM.

On to `N#CCCC(Br)(C#N)CBr` (configuration not stated) [1,2-Dibromo-2,4-dicyanobutane], for which the “IC50 cell viability (WST-8)” value in test [1] and in test [2] was above 88 µM in each case. Further, the IC50 cell viability in test [3] was 60.4 µM; in test [4] it was 77.7 µM.

`C[C@H](O)CCO` [1,3-Butanediol]: the “IC50 cell viability (WST-8)” value in test [1] stood at 5.52 µM. The compound further yielded an IC50 cell viability in test [3] of 13.5 µM.

Take `O=[N+]([O-])c1ccc(Cl)c([N+](=O)[O-])c1` [1-Chloro-2,4-dinitrobenzene]: the “IC50 cell viability (WST-8)” value was determined as 4.76 µM in test [1] and 9.18 µM in test [2]. In addition, the IC50 cell viability in test [3] was 5.43 µM; in test [4], 9.18 µM.

Turning to `CCCCCCCCCCCCN1CCCC1=O` [1-Dodecyl-2-pyrrolidinone], in test [1], the “IC50 cell viability (WST-8)” value came out at 15.8 µM. For the same compound, the IC50 cell viability in test [3] is 18.4 µM; in test [4] it was 29.1 µM.

For `O=C(c1ccccc1)c1ccc(O)cc1O` [2,4-Dihydroxybenzophenone], in test [1], the “IC50 cell viability (WST-8)” value worked out at 44.4 µM. The compound also had an IC50 cell viability in test [3] of 58.1 µM.

For `C=CC(=O)OCCO` [2-Hydroxyethyl acrylate], the “IC50 cell viability (WST-8)” value in test [1] was 17.4 µM. In test [3], the IC50 cell viability was 35.1 µM.

Take `Cn1sccc1=O` [2-Methyl-4-isothiazolin-3-one hydrochloride]: in test [1], the “IC50 cell viability (WST-8)” value worked out at 32.2 µM. In test [3], this compound came in with an IC50 cell viability of 39.9 µM.

On to `CCCCNC(=O)OCC#CI` [3-Iodo-2-propynyl-N-butylcarbamate], for which the “IC50 cell viability (WST-8)” value in test [1] was above 88 µM. The same compound yielded an IC50 cell viability in test [3] of 76.7 µM.

As to `COc1ccc(C(C)=O)cc1` [4'-Methoxyacetophenone], the “IC50 cell viability (WST-8)” value in test [1] turned out to be 53.4 µM. In test [3], this compound returned an IC50 cell viability of 55.5 µM.

For the compound `Cc1c2ccccc2c(C)c2c1ccc1ccccc12` [7,12-Dimethylbenz(a)anthracene], the “IC50 cell viability (WST-8)” value in test [1] and in test [2] was 46.2 µM in each case. The IC50 cell viability in test [3] and in test [4] was 46.2 µM in each case.

With `CCCCCCCCCCCC[N+](C)(C)Cc1ccccc1` [Benzyldimethyldodecylammonium chloride], the “IC50 cell viability (WST-8)” value was 3.36 µM in test [1] and 22.2 µM in test [2]. Besides, the IC50 cell viability came out at 2.91 µM in test [3] and 43.1 µM in test [4].

As for `CC(C)(c1ccc(OCC2CO2)cc1)c1ccc(OCC2CO2)cc1` (configuration not stated) [Bisphenol A diglycidyl ether], the figures for the “IC50 cell viability (WST-8)” value in test [1] and in test [2] were 43.7 µM and 65.2 µM, respectively. The IC50 cell viability in test [3] is 39.1 µM; in test [4], 71.2 µM.

Regarding `O=[N+]([O-])C(Br)(CO)CO` [Bronopol], the “IC50 cell viability (WST-8)” value in test [1] was 24.9 µM; in test [2] it was 53.8 µM. Further, the IC50 cell viability in test [3] came to 24.1 µM; in test [4], 73.2 µM.

As for `CC1=CC(=C(c2ccc(N)cc2)c2ccc(N)cc2)C=CC1=N` [C.I. Basic Violet 14], the IC50 cell viability in test [3] is 1.16 µM.

Regarding `CC(C)(C)C(=O)C(Oc1ccc(Cl)cc1)n1ccnc1` (configuration not stated) [Climbazole], in test [3], the IC50 cell viability is 0.42 µM.

`O=C1OC2(c3cc(Br)c(O)c(Br)c3Oc3c2cc(Br)c(O)c3Br)c2c(Cl)c(Cl)c(Cl)c(Cl)c21` [D&C Red 27]: the “IC50 cell viability (WST-8)” value in test [2] amounted to 22.3 µM. Also, the IC50 cell viability in test [3] was found to be 44.9 µM; in test [4], 28.1 µM.

Turning to `O=c1c(-c2ccccc2)c1-c1ccccc1` [Diphenylcyclopropenone], the “IC50 cell viability (WST-8)” value came to 36.6 µM in test [1] and 5.47 µM in test [2]. Moreover, the IC50 cell viability was 30.8 µM in test [3] and 5.69 µM in test [4].

Take `CCCCCCCCCCCC(=O)O` [Dodecanoic acid]: the “IC50 cell viability (WST-8)” value is 58.1 µM in test [1] and above 88 µM in test [2]. The results for the IC50 cell viability in test [3] and in test [4] were 58.1 µM and above 88 µM, respectively.

As for `CCCCCCCCCCCCOC(=O)c1cc(O)c(O)c(O)c1` [Dodecyl gallate], the “IC50 cell viability (WST-8)” value in test [1] was determined as 23.5 µM. The IC50 cell viability in test [3] amounted to 21 µM.

In the case of `CCCCCCCCCCCCc1ccc(S(=O)(=O)O)cc1` [Dodecylbenzenesulfonic acid], the entries for the “IC50 cell viability (WST-8)” value in test [1] and in test [2] were 29.5 µM and 23 µM, respectively. The IC50 cell viability in test [3] was determined as 25.8 µM; in test [4], 29.9 µM.

For `Cc1ccc(/C=C2/C(=O)C3(C)CCC2C3(C)C)cc1` (configuration not stated) [Enzacamene], the “IC50 cell viability (WST-8)” value in test [1] and in test [2] was above 88 µM in each case. Also, the IC50 cell viability in test [3] came out at 71.3 µM; in test [4], 71.6 µM.

Regarding `CCCCN(CCC(=O)OCC)C(C)=O` [Ethyl 3-(N-butylacetamido)propionate], the IC50 cell viability in test [3] was determined as 21 µM.

Regarding `O=CCCCC=O` [Glutaraldehyde], the “IC50 cell viability (WST-8)” value is 24.4 µM in test [1] and above 88 µM in test [2]. The figures for the IC50 cell viability in test [3] and in test [4] were 20.2 µM and above 88 µM, respectively.

Turning to `Oc1c(Cl)cc(Cl)c(Cl)c1Cc1c(O)c(Cl)cc(Cl)c1Cl` [Hexachlorophene], the “IC50 cell viability (WST-8)” value was 0.37 µM in test [1] and 2.28 µM in test [2]. Moreover, the IC50 cell viability in test [3] came out at 0.39 µM; in test [4] it was 18.8 µM.

Take `CC1(C)CNC(=NN=C(/C=C/c2ccc(C(F)(F)F)cc2)/C=C/c2ccc(C(F)(F)F)cc2)NC1` [Hydramethylnon]: the entries for the “IC50 cell viability (WST-8)” value in test [1] and in test [2] were 27 µM and 51.3 µM, respectively. Further, the IC50 cell viability in test [3] was found to be 17 µM; in test [4], 38.9 µM.

For the compound `Oc1ccc(O)cc1` [Hydroquinone], the IC50 cell viability in test [3] worked out at 39.1 µM.

For the compound `C=CC(=O)OCCCCCCCC(C)C` [Isodecyl acrylate], in test [1], the “IC50 cell viability (WST-8)” value turned out to be 1.54 µM. This compound also came in with an IC50 cell viability in test [3] of 3.55 µM.

Take `CC(=O)N1CCN(c2ccc(OCC3COC(Cn4ccnc4)(c4ccc(Cl)cc4Cl)O3)cc2)CC1` (configuration not stated) [Ketoconazole]: in test [1], the “IC50 cell viability (WST-8)” value worked out at 14 µM. In test [3], this compound came in with an IC50 cell viability of 26.4 µM.

Regarding `CN=C1C=CC(=C(c2ccc(N(C)C)cc2)c2ccc(N(C)C)cc2)C=C1` [Methyl Violet], the “IC50 cell viability (WST-8)” value in test [1] turned out to be 0.51 µM. The compound also gave an IC50 cell viability in test [3] of 0.64 µM.

`CN(C)c1ccc(C(=C2C=CC(=[N+](C)C)C=C2)c2ccc(N(C)C)cc2)cc1` [Methylrosaniline chloride]: the figures for the “IC50 cell viability (WST-8)” value in test [1] and in test [2] were 1.51 µM and 42.8 µM, respectively. For the same compound, the IC50 cell viability in test [3] is 1.99 µM; in test [4], 41.5 µM.

Consider `CCCCC(CC)COC(=O)C(C#N)=C(c1ccccc1)c1ccccc1` (configuration not stated) [Octocrylene], for which the “IC50 cell viability (WST-8)” value in test [1] is 9.8 µM. Moreover, the IC50 cell viability in test [3] is 16.6 µM.

Take `Oc1c(Cl)c(Cl)c(Cl)c(Cl)c1Cl` [Pentachlorophenol]: the results for the “IC50 cell viability (WST-8)” value in test [1] and in test [2] were 0.12 µM and 1.18 µM, respectively. The IC50 cell viability was 0.51 µM in test [3] and 4.23 µM in test [4].

As for `O=C1C=CC(=C(c2ccc(O)cc2)c2ccccc2S(=O)(=O)O)C=C1` [Phenol Red sodium salt], the IC50 cell viability in test [3] came out at 79.9 µM.

Consider `O=CCc1ccccc1` [Phenylacetaldehyde], for which the “IC50 cell viability (WST-8)” value in test [1] was above 88 µM. Also, in test [3], the IC50 cell viability was above 88 µM.

Regarding `CC(=O)[O][Hg][c]1ccccc1` [Phenylmercuric acetate], the “IC50 cell viability (WST-8)” value in test [1] was 0.01 µM; in test [2], 0.38 µM. The values for the IC50 cell viability in test [3] and in test [4] were 0.06 µM and 0.37 µM, respectively.

With `CCCCCCCCCCCCCCCCOCCOCCOCCOCCOCCOCCOCCOCCOCCOCCOCCOCCOCCOCCOCCOCCOCCOCCOCCOCCO` [Polyethylene glycol (20) hexadecyl ether], the “IC50 cell viability (WST-8)” value in test [1] was determined as 13.3 µM.

For the compound `[K+].[K+].[O]=[Cr](=[O])([O-])[O][Cr](=[O])(=[O])[O-]` [Potassium dichromate], the “IC50 cell viability (WST-8)” value in test [1] amounted to 1.97 µM; in test [2], 2.3 µM. For the same compound, the IC50 cell viability in test [3] was 1.66 µM; in test [4], 2.53 µM.

With `CC(=O)OCC(C)OC(C)=O` (configuration not stated) [Propylene glycol diacetate], in test [1], the “IC50 cell viability (WST-8)” value was 27.7 µM. This compound also yielded an IC50 cell viability in test [3] of 35.7 µM.

Regarding `C=C/C=C\CC1=C(C)[C@@H](OC(=O)[C@@H]2[C@@H](/C=C(\C)C(=O)OC)C2(C)C)CC1=O.C=C/C=C\CC1=C(C)[C@@H](OC(=O)[C@@H]2[C@@H](C=C(C)C)C2(C)C)CC1=O` [Pyrethrins], the “IC50 cell viability (WST-8)” value in test [1] stood at 34.8 µM.

With `CCN(CC)c1ccc2c(-c3ccccc3C(=O)O)c3ccc(=[N+](CC)CC)cc-3oc2c1` [Rhodamine B], the IC50 cell viability in test [3] was found to be 42.8 µM.

As for `COC(C)(C)CCC[C@H](C)C/C=C/C(C)=C/C(=O)OC(C)C` [S-Methoprene], the “IC50 cell viability (WST-8)” value in test [1] is 82.5 µM. Also, the IC50 cell viability in test [3] amounted to 82.5 µM.

`CCN(CC)c1ccc(C(=C2C=CC(=[N+](CC)CC)C=C2)c2ccc(S(=O)(=O)O)cc2S(=O)(=O)[O-])cc1` [Sulfan blue]: in test [3], the IC50 cell viability was found to be 41.3 µM.

Turning to `N#CC(Cl)(Cl)Cl` [Trichloroacetonitrile], the “IC50 cell viability (WST-8)” value is 1.2 µM in test [1] and 6.07 µM in test [2]. The results for the IC50 cell viability in test [3] and in test [4] were 0.8 µM and 5.34 µM, respectively.

As for `O=C(Nc1ccc(Cl)cc1)Nc1ccc(Cl)c(Cl)c1` [Triclocarban], the “IC50 cell viability (WST-8)” value in test [1] turned out to be 2.31 µM. The IC50 cell viability in test [3] was determined as 2.7 µM; in test [4], 6.78 µM.

`C=C1CC[C@H](O)C/C1=C/C=C1\CCC[C@]2(C)[C@@H]([C@H](C)CCCC(C)C)CC[C@@H]12` [Vitamin D3]: in test [1], the “IC50 cell viability (WST-8)” value is 12.7 µM. In test [3], this compound came in with an IC50 cell viability of 13.7 µM.

With `CC(C)(C)c1cc(O)ccc1O` [tert-Butylhydroquinone], in test [1], the “IC50 cell viability (WST-8)” value is above 88 µM. Further, the IC50 cell viability in test [3] came to 77.7 µM; in test [4], 58.1 µM.
